Laboratory results published in PubChem BioAssay (NCI).
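These data come from cells grown in 96-well plates and exposed to compound for 48 hours at five concentrations. The concentration for 50% growth inhibition is given as GI50. TGI denotes the concentration required for complete inhibition of growth.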

Legend:
Assay in all cases: NCI tumour cell line growth inhibition, 48 h
A549 NSCLC = system: A549 NSCLC
ACHN renal = system: ACHN renal
HOP-62 NSCLC = system: HOP-62 NSCLC
IGROV1 ovarian = system: IGROV1 ovarian
M14 melanoma = system: M14 melanoma
MALME-3M melanoma = system: MALME-3M melanoma
SK-MEL-2 melanoma = system: SK-MEL-2 melanoma
SK-MEL-5 melanoma = system: SK-MEL-5 melanoma

Compound | GI50 (A549 NSCLC) [µM] | TGI (A549 NSCLC) [µM] | GI50 (ACHN renal) [µM] | TGI (ACHN renal) [µM] | GI50 (HOP-62 NSCLC) [µM] | TGI (HOP-62 NSCLC) [µM] | GI50 (IGROV1 ovarian) [µM] | TGI (IGROV1 ovarian) [µM] | GI50 (M14 melanoma) [µM] | TGI (M14 melanoma) [µM] | GI50 (MALME-3M melanoma) [µM] | TGI (MALME-3M melanoma) [µM] | GI50 (SK-MEL-2 melanoma) [µM] | TGI (SK-MEL-2 melanoma) [µM] | GI50 (SK-MEL-5 melanoma) [µM] | TGI (SK-MEL-5 melanoma) [µM]
CC/C(Cc1ccccc1)=C(\c1ccc(OCCN2CCCC2)cc1)c1ccc(OC(=O)NCc2ccccc2)cc1 | 1.88 | 3.47 | 1.69 | 3.06 | 2.07 | 3.75 | 1.93 | 3.87 | 1.73 | 3.31 | 1.68 | 3.19 | 2.09 | 3.99 | 1.71 | 3.11
NC(=O)c1ccc(Oc2nccc(-c3c(-c4ccc(F)cc4)ncn3C3CCNCC3)n2)cc1 | > 25 | > 25 | > 25 | > 25 | > 25 | > 25 | > 25 | > 25 | > 25 | > 25 | > 25 | > 25 | > 25 | > 25 | > 25 | > 25
CC(=O)OC12C=C(C)C(C(C)C1)C1C(=O)N(CCN3CCCCC3)C(=O)C12 (configuration not stated) | > 50 | > 50 | > 50 | > 50 | > 50 | > 50 | > 50 | > 50 | > 50 | > 50 | > 50 | > 50 | > 50 | > 50 | > 50 | > 50
CCCCCCSSC(=S)N(CC)CC | 32.4 | 98.6 | 20.1 | 41.7 | 34.6 | > 100 | 31.5 | 86.7 | 19.2 | 47.6 | 23 | 60.4 | 25 | 58.7 | 14.6 | 31.6
S=C1Cc2c(-c3ccc(Br)cc3)cc(-c3ccccc3)nc2-c2ccccc2N1 |  | 8.23 | 0.867 | 2.35 |  | 3.01 |  | 2.94 |  | 11.8 |  | 7.41 |  | 20 |  | 23.5
COC(=O)c1c(-c2cccs2)oc(-c2cccs2)c1C(=O)OC | 39.1 | > 100 | > 70.2 | > 100 | 32.8 | > 100 | 36.2 | > 100 | 20.3 | 55.2 | 25 | 64 | 39.5 | > 100 |  | 
CCOC(=O)/C(=C/c1cccc(Cl)c1)N(CC)CC |  | > 100 |  | > 100 |  | 77.8 |  | > 100 |  | > 100 |  | > 100 |  | 68.5 |  | > 100
COc1ccc(/C=C/c2c(C(=O)/C=C/c3ccc(C(F)(F)F)cc3)c(C)nc3ccccc23)cc1 | 2.71 | 8.57 | 1.5 | 2.84 |  |  | 0.466 | 2.39 |  |  | 1.71 | 3.19 | 2.05 | 4.64 | 1.68 | 3.09
